Data on 17 molecules can be found in patent US20250346592A1 (Celgene Corporation, priority 2022, published 2025).

For experiment [1], the target named is T1, hPAD4 enzyme (Homo sapiens (Human), UniProt Q9UM07). Description: RFMS2 assay (RapidFire mass spectrometry, TSTGGRQGSHH peptide substrate). It counts as biochemical. As to conditions: 35 nM recombinant human PAD4, 500 μM TSTGGRQGSHH peptide, 30 minutes at room temperature; read-out: RFMS 2 IC50. The essentials: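 Recombinant human PAD4 (35 nM) with 500 μM TSTGGRQGSHH peptide in HEPES pH 7.4, 200 mM NaCl, 2 mM CaCl2, 5 mM DTT, 1.2% DMSO, 30 min at room temperature; 3-fold compound series, top 20 μM. Quenched with formic acid; substrate and citrullinated product quantified by RapidFire MRM mass spectrometry for IC50.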

The target of experiment [2] is T1, hPAD4 enzyme. Description: RFMS1 assay (RapidFire mass spectrometry, BAEE substrate). It counts as biochemical. As to conditions: 5 nM hPAD4, 250 μM BAEE, 30 min preincubation at 37° C., 90 min reaction; read-out: RFMS 1 IC50. As to the method: Compounds were solubilized in 100% DMSO to achieve a 10 mM compound concentration. Compound stock solutions were stored at RT. A series of dilutions were prepared in DMSO and mixed 8 times with 20 μL mixing volume. Final top concentration of compound in the assay is 50 μM. Final assay conditions were as follows: • Reaction volume: 26 μl • Assay buffer: 25 mM hepes, pH 7.5, 5 mM NaCl, 1 mM DTT, 0.2 mg/ml BSA, 0.01% CHAPS, 50 µM Calcium, and 5 μM TPEN • Final concentrations: 5 nM hPAD4 enzyme, 250 µM BAEE, and 0.5% DMSO • Total incubation time: 30 mins compound and enzyme preincubation at 37° C., 90 min enzyme/substrate reaction, 30 min reaction with phenyl glyoxal at 37° C. • Stop solution: 40 μl 5% TCA in ACN • 0.13 μL of compound solution was added to 13 μL of 10 nM PAD4 in assay buffer. After […] min 13 μl of 500 µM of BAEE was added in 25 mM hepes, pH 7.5, 5 mM NaCl, 1 mM DTT, 0.2 mg/ml BSA, 0.01% CHAPS, 50 μM Calcium, 5 μM TPEN was added and the reaction incubated for 90 min at 37° C. The enzymatic reaction was quenched by addition of 15 μl of 6.1N TCA, 100% Final Concentration is 20%, 35 μl of 8.5 mM phenyl glyoxal (final concentration 4 mM) is then added and the reaction is incubated for 30 min at 37° C.
After 30 minutes the plates are spun down to remove all precipitate. The enzyme reaction was quenched with an equal volume of methanol containing internal standard (modified citrulline). Samples were loaded onto the Rapid Fire RF300 system (Agilent) wherein they were first sipped for 1000 ms and then directly loaded to a C18 separations cartridge using a mixture of acetonitrile containing 0.01% formic acid for 3000 ms desalting. The flow rate of the mobile phase was 1.5 ml/min. Once the samples were eluted from the cartridge, a mobile phase of acetonitrile containing 0.01% formic acid was used to move the samples into the mass spectrometer for 4000 ms at a flow rate of 1.25 ml/min/Sciex API5500 triple quadrupole mass spectrometer (Applied Biosystems) equipped with ESI was used to analyze the peptidyl citrulline and internal standard ions.
MRM transition of product and internal standard were monitored at m/z 424.5 to 350.4 and m/z 293 to 247 respectively. The dwell time for each transition was set at 200 ms, and the ESI voltage was used at 5500 with a source temperature of 400° C. Extracted ion peaks for each transition were integrated using the Rapid Fire Integrator software. Peak area of analyte was normalized with internal standard.).
Compounds having an activity designated as “A” provided an IC50≤10 nM; compounds having an activity designated as “B” provided an IC50 11-100 nM; compounds having an activity designated as “C” provided an IC50 101-500 nM; compounds having an activity designated as “D” provided an IC50 501-1000 nM; compounds having an activity designated as “E” provided an IC50>1000 nM.

T1 sequence (Q9UM07 whole entry): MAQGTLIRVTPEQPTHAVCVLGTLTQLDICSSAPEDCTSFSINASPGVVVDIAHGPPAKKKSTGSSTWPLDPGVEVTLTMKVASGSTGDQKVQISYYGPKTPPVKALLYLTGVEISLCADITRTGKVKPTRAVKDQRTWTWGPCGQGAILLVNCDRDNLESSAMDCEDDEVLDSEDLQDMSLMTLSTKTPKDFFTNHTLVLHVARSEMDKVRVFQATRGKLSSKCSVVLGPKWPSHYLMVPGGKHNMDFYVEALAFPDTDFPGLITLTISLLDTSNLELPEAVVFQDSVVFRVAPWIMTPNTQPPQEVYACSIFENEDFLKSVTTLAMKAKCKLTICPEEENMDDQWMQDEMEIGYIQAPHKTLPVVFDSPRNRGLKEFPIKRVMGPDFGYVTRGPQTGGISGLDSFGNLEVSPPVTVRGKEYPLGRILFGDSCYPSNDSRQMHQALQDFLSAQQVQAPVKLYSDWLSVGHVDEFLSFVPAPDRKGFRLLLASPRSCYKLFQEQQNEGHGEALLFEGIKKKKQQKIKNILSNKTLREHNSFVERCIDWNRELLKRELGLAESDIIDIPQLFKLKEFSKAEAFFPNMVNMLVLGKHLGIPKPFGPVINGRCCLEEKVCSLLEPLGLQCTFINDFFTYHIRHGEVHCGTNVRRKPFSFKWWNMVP

For the molecule `COC1CCN(c2ccc3cc(-c4nc5cc6c(cc5n4C)CCN(C[C@H](N)CF)C6=O)n(CC4CC4)c3c2)CC1` [Example 68, (S)-6-(2-amino-3-fluoropropyl)-2-(1-(cyclopropylmethyl)-6-(4-methoxypiperidin-1-yl)-1H-indol-2-yl)-1-methyl-1,6,7,8-tetrahydro-5H-imidazo[4,5-g]isoquinolin-5-one], the half-maximal inhibitory concentration (IC50) was above 1000 nM at hPAD4 enzyme [1] and 11 to 100 nM at hPAD4 enzyme [2].
In the case of `COCCn1c(-c2nc3cc4c(cc3n2C)CCN(C[C@H](N)CF)C4=O)cc2cccc(OC)c21` [Example 102, (S)-6-(2-amino-3-fluoropropyl)-2-(7-methoxy-1-(2-methoxyethyl)-1H-indol-2-yl)-1-methyl-1,6,7,8-tetrahydro-5H-imidazo[4,5-g]isoquinolin-5-one], the half-maximal inhibitory concentration (IC50) on hPAD4 enzyme [1] and at hPAD4 enzyme [2] was 101 to 500 nM throughout.
With `COc1cccc2cc(-c3nc4cc5c(cc4n3C)CCN(C[C@H](N)CF)C5=O)n(Cc3cc(C)no3)c12` [Example 113, (S)-6-(2-amino-3-fluoropropyl)-2-(7-methoxy-1-((3-methylisoxazol-5-yl)methyl)-1H-indol-2-yl)-1-methyl-1,6,7,8-tetrahydro-5H-imidazo[4,5-g]isoquinolin-5-one], the figures for the IC50 on hPAD4 enzyme [1] and at hPAD4 enzyme [2] were 101 to 500 nM and 11 to 100 nM, respectively.
On the same counts, the results for `COc1cccc2cc(-c3nc4cc5c(cc4n3C)CCN(C[C@H](N)CF)C5=O)n(Cc3ncco3)c12` [Example 119, (S)-6-(2-amino-3-fluoropropyl)-2-(7-methoxy-1-(oxazol-2-ylmethyl)-1H-indol-2-yl)-1-methyl-1,6,7,8-tetrahydro-5H-imidazo[4,5-g]isoquinolin-5-one] are 101 to 500 nM and 11 to 100 nM.
On the same counts, the results for `COc1cccc2cc(-c3nc4cc5c(cc4n3C)CCN(C[C@H](N)CF)C5=O)n(Cc3nc(C)co3)c12` [Example 124, (S)-6-(2-amino-3-fluoropropyl)-2-(7-methoxy-1-((4-methyloxazol-2-yl)methyl)-1H-indol-2-yl)-1-methyl-1,6,7,8-tetrahydro-5H-imidazo[4,5-g]isoquinolin-5-one] are 101 to 500 nM and 11 to 100 nM.
On the same counts, the results for `COc1cccc2cc(-c3nc4cc5c(cc4n3C)CCN(C[C@H](N)CF)C5=O)n(Cc3nccs3)c12` [Example 127, (S)-6-(2-amino-3-fluoropropyl)-2-(7-methoxy-1-(thiazol-2-ylmethyl)-1H-indol-2-yl)-1-methyl-1,6,7,8-tetrahydro-5H-imidazo[4,5-g]isoquinolin-5-one] are 101 to 500 nM and 101 to 500 nM.
On to `COc1cccc2cc(-c3nc4cc5c(cc4n3C)CCN(C[C@H](N)CF)C5=O)n(Cc3cc(N)no3)c12` [Example 146, (S)-6-(2-amino-3-fluoropropyl)-2-(1-((3-aminoisoxazol-5-yl)methyl)-7-methoxy-1H-indol-2-yl)-1-methyl-1,6,7,8-tetrahydro-5H-imidazo[4,5-g]isoquinolin-5-one], for which the values for the IC50 on hPAD4 enzyme [1] and at hPAD4 enzyme [2] were 101 to 500 nM and 11 to 100 nM, respectively.
As to `Cn1c(-c2cc3cccc(OCCn4cncn4)c3n2CC2CC2)nc2cc3c(cc21)CCN(C[C@H](N)CF)C3=O` [Example 150, (S)-2-(7-(2-(1H-1,2,4-triazol-1-yl)ethoxy)-1-(cyclopropylmethyl)-1H-indol-2-yl)-6-(2-amino-3-fluoropropyl)-1-methyl-1,6,7,8-tetrahydro-5H-imidazo[4,5-g]isoquinolin-5-one], the IC50 was 101 to 500 nM at hPAD4 enzyme [1] and at most 10 nM on hPAD4 enzyme [2].
On the same counts, the results for `Cc1nccn1CCOc1cccc2cc(-c3nc4cc5c(cc4n3C)CCN(C[C@H](N)CF)C5=O)n(CC3CC3)c12` [Example 165, (S)-6-(2-amino-3-fluoropropyl)-2-(1-(cyclopropyl-methyl)-7-(2-(2-methyl-1H-imidazol-1-yl)ethoxy)-1H-indol-2-yl)-1-methyl-1,6,7,8-tetrahydro-5H-imidazo [4,5-g]isoquinolin-5-one] are 101 to 500 nM and 11 to 100 nM.
In the case of `Cn1cncc1CCOc1cccc2cc(-c3nc4cc5c(cc4n3C)CCN(C[C@H](N)CF)C5=O)n(CC3CC3)c12` [Example 169, (S)-6-(2-amino-3-fluoropropyl)-2-(1-(cyclopropyl-methyl)-7-(2-(1-methyl-1H-imidazol-5-yl)ethoxy)-1H-indol-2-yl)-1-methyl-1,6,7,8-tetrahydro-5H-imidazo [4,5-g]isoquinolin-5-one], the IC50 at hPAD4 enzyme [1] is 101 to 500 nM; at hPAD4 enzyme [2], 11 to 100 nM.
On the same counts, the results for `Cn1c(-c2cc3cccc(OCc4ccn[nH]4)c3n2CC2CC2)nc2cc3c(cc21)CCN(C[C@H](N)CF)C3=O` [Example 174, (S)-2-(7-((1H-pyrazol-5-yl)methoxy)-1-(cyclopropyl-methyl)-1H-indol-2-yl)-6-(2-amino-3-fluoropropyl)-1-methyl-1,6,7,8-tetrahydro-5H-imidazo[4,5-g] isoquinolin-5-one] are 11 to 100 nM and 11 to 100 nM.
On the same counts, the results for `Cn1c(-c2cc3cccc(OCCn4ccnn4)c3n2CC2CC2)nc2cc3c(cc21)CCN(C[C@H](N)CF)C3=O` [Example 181, (S)-2-(7-(2-(1H-1,2,3-triazol-1-yl)ethoxy)-1-(cyclopropylmethyl)-1H-indol-2-yl)-6-(2-amino-3-fluoropropyl)-1-methyl-1,6,7,8-tetrahydro-5H-imidazo[4,5-g]isoquinolin-5-one] are 11 to 100 nM and at most 10 nM.
With `CN1CC(COc2cccc3cc(-c4nc5cc6c(cc5n4C)CCN(C[C@H](N)CF)C6=O)n(CC4CC4)c23)CC1=O` (stereo partly drawn) [Example 184, 6-((S)-2-amino-3-fluoropropyl)-2-(1-(cyclopropylmethyl)-7-((1-methyl-5-oxopyrrolidin-3-yl)methoxy)-1H-indol-2-yl)-1-methyl-1,6,7,8-tetrahydro-5H-imidazo[4,5-g]isoquinolin-5-one], the results for the IC50 on hPAD4 enzyme [1] and at hPAD4 enzyme [2] were 101 to 500 nM and 11 to 100 nM, respectively.
On the same counts, the results for `Cn1c(-c2cc3cccc(OCCn4cnnn4)c3n2CC2CC2)nc2cc3c(cc21)CCN(C[C@H](N)CF)C3=O` [Example 186, (S)-2-(7-(2-(1H-tetrazol-1-yl)ethoxy)-1-(cyclopropylmethyl)-1H-indol-2-yl)-6-(2-amino-3-fluoropropyl)-1-methyl-1,6,7,8-tetrahydro-5H-imidazo[4,5-g]isoquinolin-5-one] are 11 to 100 nM and at most 10 nM.
On the same counts, the results for `Cn1c(-c2cc3cccc(OC[C@@H]4CNC(=O)C4)c3n2CC2CC2)nc2cc3c(cc21)CCN(C[C@H](N)CF)C3=O` [Example 190, 6-((S)-2-amino-3-fluoropropyl)-2-(1-(cyclopropylmethyl)-7-(((S)-5-oxopyrrolidin-3-yl)methoxy)-1H-indol-2-yl)-1-methyl-1,6,7,8-tetrahydro-5H-imidazo[4,5-g]isoquinolin-5-one] are 11 to 100 nM and at most 10 nM.
Take `Cn1c(-c2cc3cccc(OCCc4ccno4)c3n2CC2CC2)nc2cc3c(cc21)CCN(C[C@H](N)CF)C3=O` [Example 195, (S)-6-(2-amino-3-fluoropropyl)-2-(1-(cyclopropylmethyl)-7-(2-(isoxazol-5-yl)ethoxy)-1H-indol-2-yl)-1-methyl-1,6,7,8-tetrahydro-5H-imidazo[4,5-g]isoquinolin-5-one]: the IC50 at hPAD4 enzyme [1] was 11 to 100 nM; at hPAD4 enzyme [2], at most 10 nM.
On the same counts, the results for `Cn1c(-c2cc3cccc(OCCn4ccnc4)c3n2CC2CC2)nc2cc3c(cc21)CCN(C[C@H](N)CF)C3=O` [Example 198, (S)-2-(7-(2-(1H-imidazol-1-yl)ethoxy)-1-(cyclopropylmethyl)-1H-indol-2-yl)-6-(2-amino-3-fluoropropyl)-1-methyl-1,6,7,8-tetrahydro-5H-imidazo[4,5-g]isoquinolin-5-one] are 11 to 100 nM and at most 10 nM.
